We go through three compounds from patent US20140373438A1, “Method for Thinning Fruit” (BAYER CROPSCIENCE AG, priority 2001, published 2014).

The test system of series [1] is young plant organs (leaves and fruits). The settings on record: applied, preferably sprayed, together with the thinning formulations.
In the next series the test system is plants. Particulars: use for fruit thinning, J. Amer. Soc. Hort. Sci. 115(1): 14-19 (1990); cited from earlier work.
A further series concerns apple varieties. Description: Plant tolerance by visual scoring in thinning experiments. The series is classed as in vivo. The settings on record: application rates 500 mg/l and 700 mg/l. The method, then:
According to visual scoring, formulations comprising […] metamitron show no or only minimal damage when used in thinning experiments on a wide range of apple varieties, while formulations comprising 700 mg/l metamitron cause minimal to clearly discernable damage under identical conditions.

Series [2] relates to "Golden Delicious" apple variety. Particulars: 7 days post-flowering, standard 98 g, cited from earlier work.

SMILES strings stand for the structures. Read-outs that look alike come from different tables or passages of the source.

As to `O=C[O-].O=C[O-].[Ca+2]` [calcium formate], the plant intolerance symptoms entry in series [1] is reported as “plant intolerance symptoms were not observed”.

In the case of `CSc1nnc(C(C)(C)C)c(=O)n1N` [metribuzin], the plant tolerance result in the series on plants was “unsatisfactory”. With `Cc1nnc(-c2ccccc2)c(=O)n1N` [metamitron], the “plant damage at the application rates of Guzewski” value with apple varieties is given as “plant damage (foliar necroses) can be observed”. In addition, the fruit weight in series [2] (application rate 500 mg/l) is 150 g; in series [2] (application rate 700 mg/l) it was 180 g.
